From ChEMBL document CHEMBL5131466, “Discovery and development of labdane-oxindole hybrids as small-molecule inhibitors against chikungunya virus infection” (Eur J Med Chem, 2022)
Activity calls are given as the source filed them. The calls are words filed in the database; no cut-off is given here.

Experiments:
Chikungunya virus [1] = test: Antiviral activity against CHIKV 122508 infected in human HeLa CCL2 cells assessed as inhibition of viral replication at MOI of 1 at 1 uM incubated for 24 hpi by viral plaque assay; assay type: functional; details: time 24 hrs
[2] = Selectivity index, ratio of CC50 for cytotoxicity against human HeLa CCL2 cells to EC50 for antiviral activity against CHIKV 122508 infected in human HeLa CCL2 cells; assay type: toxicity, cell-based; details: read-out: Ratio CC50/EC50
Chikungunya virus [3] = test: Antiviral activity against CHIKV 122508 infected in […] BHK-21 cells assessed as reduction in viral titer at MOI of 1 measured after 24 hpi by viral plaque assay; assay type: functional, organism-based; details: Chikungunya virus, 122508, BHK-21
[4] = Cytotoxicity against human HeLa CCL2 cells assessed as reduction in cell viability measured after 24 hrs by Alamar blue assay; assay type: functional
Chikungunya virus [5] = test: Antiviral activity against CHIKV 122508 infected in human HeLa CCL2 cells assessed as inhibition of viral replication at MOI of 1 at 10 uM incubated for 24 hpi by viral plaque assay; assay type: functional; parameters: unit not given here; details: time 24 hrs
Chikungunya virus [6] = test: Antiviral activity against CHIKV 122508 infected in human HeLa CCL2 cells assessed as inhibition of viral replication at MOI of 1 at 80 uM incubated for 24 hpi by viral plaque assay; assay type: functional; parameters: unit not given here; details: time 24 hrs
Chikungunya virus [7] = test: Antiviral activity against CHIKV 122508 infected in human HeLa CCL2 cells assessed as inhibition of viral replication at MOI of 1 at 100 uM incubated for 24 hpi by viral plaque assay; assay type: functional; parameters: unit not given here; details: time 24 hrs
BHK-21 = test: Cytotoxicity against hamster BHK-21 cells assessed as reduction in cell viability; assay type: functional; details: Mesocricetus auratus
Chikungunya virus [8] = test: Antiviral activity against CHIKV 122508 mutant infected in hamster BHK-21cells assessed as log reduction in viral titer at 80 uM measured after 14 passage; assay type: functional, organism-based
Chikungunya virus [9] = test: Antiviral activity against CHIKV 6708 infected in hamster BHK-21 cells assessed as reduction in virus titer in cells; assay type: functional, organism-based; details: Chikungunya virus, 6708, BHK-21
Chikungunya virus [10] = test: Antiviral activity against CHIKV 6708 infected in hamster BHK-21 cells assessed as reduction in viral titer at 80 uM post treatment; assay type: functional, organism-based
Chikungunya virus [11] = test: Antiviral activity against CHIKV 122508 infected in human HeLa CCL2 cells assessed as inhibition of viral replication at MOI of 1 at 80 uM pretreated for 2 hrs followed by viral infection measured after 1.5 hrs by viral plaque assay (reference value: 6.2); assay type: functional; details: time 3.5 hrs
[12] = Selectivity index, ratio of CC50 for Cytotoxicity against hamster BHK-21 cells to EC50 for Antiviral activity against CHIKV 6708 infected in hamster BHK-21 cells; assay type: toxicity, cell-based; details: read-out: Ratio CC50/EC50
Chikungunya virus [13] = test: Antiviral activity against CHIKV 122508 infected in human HeLa CCL2 cells assessed as inhibition of viral replication at MOI of 1 at 40 uM pretreated with compound for 2 hr prior to viral infection by viral plaque assay (reference value: 6.2 %); assay type: functional
Chikungunya virus [14] = test: Antiviral activity against CHIKV 122508 infected in human HeLa CCL2 cells assessed as inhibition of viral replication at MOI of 1 incubated for 24 hpi by immunofluorescence assay; assay type: functional, organism-based; details: Chikungunya virus, 122508, HeLa CCL2
Chikungunya virus [15] = test: Antiviral activity against CHIKV 122508 infected in human HeLa CCL2 cells assessed as inhibition of viral replication at MOI of 1 at 20 uM incubated for 24 hpi by viral plaque assay; assay type: functional; details: time 24 hrs
Chikungunya virus [16] = test: Antiviral activity against CHIKV 122508 infected in human HeLa CCL2 cells assessed as inhibition of viral replication at MOI of 1 at 5 uM incubated for 24 hpi by viral plaque assay; assay type: functional; details: time 24 hrs

SMILES | selectivity ratio [2] | EC50 (Chikungunya virus [3]) [µM] | CC50 [4] [µM] | further results
C=C1[C@H](O)C[C@H]2C(C)(C)CCC[C@]2(C)[C@H]1C/C=C1/C(=O)Nc2c(Cl)cccc21 | 6100 | 0.001 | 6.1 | Activity (Chikungunya virus [1]): 1.1
C=C1CC[C@H]2C(C)(C)CCC[C@]2(C)[C@H]1C/C=C1\C(=O)Nc2c(OC)cccc21 | 780 | 0.03 | 23.4 | Activity (Chikungunya virus [5]): 1.5
C=C1CC[C@H]2C(C)(C)CCC[C@]2(C)[C@H]1C/C=C1/C(=O)Nc2c(OC)cccc21 | 602 | 0.15 | 90.2 | Activity (Chikungunya virus [6]): 2.6
C=C1CC[C@H]2C(C)(C)CCC[C@]2(C)[C@H]1C/C=C1\C(=O)Nc2c(C)cccc21 | > 667 | 0.15 | > 100 | Activity (Chikungunya virus [7]): 2.8
C=C1[C@H](O)C[C@H]2C(C)(C)CCC[C@]2(C)[C@H]1C/C=C1\C(=O)Nc2c(Cl)cccc21 | 6700 | 0.002 | 13.4 | Activity (Chikungunya virus [5]): 2.1
C=C1CC[C@H]2C(C)(C)CCC[C@]2(C)[C@H]1C/C=C1/C(=O)Nc2c(Cl)cccc21 | 83 | 1.55 | 130 | CC50 (BHK-21): > 100 µM; Activity (Chikungunya virus [8]): Active; EC50 (Chikungunya virus [9]): 0.14 µM; Activity (Chikungunya virus [10]): Active; Activity (Chikungunya virus [11]): 4.6; selectivity ratio [12]: 714; Activity (Chikungunya virus [6]): 3.9; Activity (Chikungunya virus [13]): 5.2
C=C1CC[C@@H]2[C@](C)(CO)[C@H](O)CC[C@@]2(C)[C@@H]1C/C=C1/C(=O)Nc2ccccc21 | 14 | 5.52 | 76.9 | EC50 (Chikungunya virus [14]): 5.5 µM
C=C1CC[C@@H]2[C@](C)(CO)[C@H](O)CC[C@@]2(C)[C@@H]1C/C=C1/C(=O)OC[C@H]1O [ANDROGRAPHOLIDE] | – | – | – | EC50 (Chikungunya virus [14]): 77 µM
C=C1CC[C@H]2C(C)(C)CCC[C@]2(C)[C@H]1C/C=C1/C(=O)Nc2c(Cl)cc(F)cc21 | 1680 | 0.08 | 134 | Activity (Chikungunya virus [6]): 2.7
C=C1CC[C@H]2C(C)(C)CCC[C@]2(C)[C@H]1C/C=C1\C(=O)Nc2c(F)cccc21 | 336 | 0.08 | 26.9 | Activity (Chikungunya virus [5]): 2
C=C1CC[C@H]2C(C)(C)CCC[C@]2(C)[C@H]1C/C=C1/C(=O)Nc2c(F)cccc21 | 4070 | 0.02 | 81.4 | Activity (Chikungunya virus [15]): 2.3
C=C1CC[C@H]2C(C)(C)CCC[C@]2(C)[C@H]1C/C=C1/C(=O)Nc2ccc(C)cc21 | 758 | 0.02 | 15.2 | Activity (Chikungunya virus [5]): 3.7
C=C1CC[C@H]2C(C)(C)CCC[C@]2(C)[C@H]1C/C=C1\C(=O)NC(=O)c2ccccc21 | > 347 | 0.29 | > 100 | Activity (Chikungunya virus [7]): 3.8
C=C1CC[C@H]2C(C)(C)CCC[C@]2(C)[C@H]1C/C=C1\C(=O)Nc2ccc(C)cc21 | 461 | 0.03 | 13.8 | Activity (Chikungunya virus [16]): 0.9
CC1=CC[C@H]2C(C)(C)CCC[C@]2(C)[C@H]1C/C=C1\C(=O)Nc2ccccc21 | 3 | 5.69 | 17 | –
C=C1CC[C@H]2C(C)(C)CCC[C@]2(C)[C@H]1C/C=C1\C(=O)Nc2ccccc21 | > 14 | 7.23 | > 100 | –
C=C1CC[C@H]2C(C)(C)CCC[C@]2(C)[C@H]1C/C=C1\C(=O)Nc2c(Br)cccc21 | > 90 | 1.12 | > 100 | Activity (Chikungunya virus [7]): 2.3
C=C1CC[C@H]2C(C)(C)CCC[C@]2(C)[C@H]1C/C=C1/C(=O)Nc2cc(C)ccc21 | 12700 | 0.002 | 25.4 | Activity (Chikungunya virus [16]): 1.2
C=C1CC[C@H]2C(C)(C)CCC[C@]2(C)[C@H]1C/C=C1\C(=O)Nc2ccc(F)cc21 | 2.4 | 6.62 | 15.7 | –
C=C1CC[C@H]2C(C)(C)CCC[C@]2(C)[C@H]1C/C=C1/C(=O)Nc2ccc(F)cc21 | 94 | 0.06 | 5.6 | Activity (Chikungunya virus [16]): 1.5
C=C1CC[C@H]2C(C)(C)CCC[C@]2(C)[C@H]1C/C=C1\C(=O)Nc2ncccc21 | 870 | 0.04 | 34.8 | Activity (Chikungunya virus [15]): 1.7
C=C1CC[C@@H]2[C@](C)(CO)[C@H](O)CC[C@@]2(C)[C@@H]1C/C=C1\C(=O)Nc2ccccc21 | > 17 | 5.85 | > 100 | –
C=C1CC[C@H]2C(C)(C)CCC[C@]2(C)[C@H]1C/C=C1/C(=O)Nc2c(C)cccc21 | 230 | 0.62 | 142 | Activity (Chikungunya virus [6]): 1.3
C=C1CC[C@H]2C(C)(C)CCC[C@]2(C)[C@H]1C/C=C1\C(=O)Nc2c(Cl)cc(F)cc21 | > 1350 | 0.07 | > 100 | Activity (Chikungunya virus [7]): 2.6
C=C1CC[C@@H]2[C@](C)(COC(C)=O)[C@H](OC(C)=O)CC[C@@]2(C)[C@@H]1C/C=C1\C(=O)Nc2ccccc21 | > 12 | 8.3 | > 100 | –
